Tested on: HepG2 cells
Test: RNA-seq transcriptome analysis of differentially expressed genes
Format: cell-based, human
Settings: BCP vs control HepG2, RNA-seq
Procedure: The quality and concentration of RNA were examined by MOPS RNA electrophoresis and Eppendorf BioSpectrometer. The transcriptome analysis was performed by BGI-Wuhan China. The RNA-seq dataset of this study is accessible in the Gene Expression Omnibus (GEO) with an access number of GSE276099. The sequence library for each sample was prepared using the BGISEQ-500 platform with a 50-bp single-end (SE50) format. […]2.2.1) was used to align the clean reads to the reference genome and alignment of the clean reads to the reference genes was carried out using Bowtie2 (v2.4.5) ([Langmead and Salzberg, 2012]; [Kim et al., 2015]). Gene expression levels were calculated by RSEM (v1.3.1) ([Li and Dewey, 2011]). Analysis of differential gene expression was performed using edgeR in the Bioconductor software package ([Robinson et al., 2010]). Using a standard protocol, the RNA samples were also examined by reverse transcription and quantitative polymerase chain reaction (RT-qPCR). In brief, for reverse transcription, total RNA (1 μg) and gDNA wiper Mix were incubated at 42°C for 2 min. The samples were immediately incubated with a master mix containing 10 pmol/μL of poly (dT) primers at 37°C for 15 min and 85°C for 5 s. To detect the expression of specific genes by qPCR analysis, gene-specific primers (shown in Supplementary Table S1) were mixed with the ChamQ Universal SYBER qPCR Master Mix and the reaction was conducted using the Roche Lightcycler 480. The GAPDH value was used to normalize the results of each gene. The RNA-seq data of BCP-treated HepG2 cells were screened for DEGs. Gene symbols were turned into Enterz ID using the org.Hs.eg.db Bio-conductor R package. The cluster profiler (v4.6.2) package was used to perform the Kyoto Encyclopedia of Genes and Genomes (KEGG) and Gene Ontology (GO) enrichment analyses ([Wu et al., 2021]). Following the Transcript per million (TPM) data of the dataset, the line chart, and heatmap were plotted using ggplot2 and pheatmap R packages, respectively.

**Q.** How did the ODAD2 change turn out when C=C1CC/C=C(\C)CC[C@@H]2[C@@H]1CC2(C)C [BCP, β-caryophyllene] was run?
**A.** Up

**Q.** And the “ODAD2 logFC” value?
**A.** 0.6018

**Q.** And the PADI1 change?
**A.** Down

**Q.** And the “PADI1 logFC” value?
**A.** -0.911

**Q.** What about the PAN2 change of the same compound?
**A.** Up

**Q.** What about the “PAN2 logFC” value of the same compound?
**A.** 0.6394

**Q.** What about the PAPLN change of the same compound?
**A.** Up

**Q.** And the “PAPLN logFC” value?
**A.** 0.648

**Q.** What about the PARP10 change of the same compound?
**A.** Up

**Q.** And the “PARP10 logFC” value?
**A.** 0.961

**Q.** What about the PDZK1IP1 change of the same compound?
**A.** Up

**Q.** What about the “PDZK1IP1 logFC” value of the same compound?
**A.** 0.6396

**Q.** And the PERM1 change?
**A.** Up

**Q.** What about the “PERM1 logFC” value of the same compound?
**A.** 0.9379

**Q.** And the PGF change?
**A.** Down

**Q.** And the “PGF logFC” value?
**A.** -1.184

**Q.** And the PGGHG change?
**A.** Up

**Q.** What about the “PGGHG logFC” value of the same compound?
**A.** 0.7209

**Q.** What about the PID1 change of the same compound?
**A.** Down

**Q.** And the “PID1 logFC” value?
**A.** -0.6654

**Q.** And the PLCD4 change?
**A.** Down

**Q.** And the “PLCD4 logFC” value?
**A.** -1.595

**Q.** And the PLCH1 change?
**A.** Up

**Q.** And the “PLCH1 logFC” value?
**A.** 1.418

**Q.** What about the PLEKHF1 change of the same compound?
**A.** Up

**Q.** And the “PLEKHF1 logFC” value?
**A.** 0.8594

**Q.** What about the PLEKHN1 change of the same compound?
**A.** Up

**Q.** What about the “PLEKHN1 logFC” value of the same compound?
**A.** 0.6105

**Q.** And the POU2F3 change?
**A.** Down

**Q.** What about the “POU2F3 logFC” value of the same compound?
**A.** -1.5108

**Q.** And the PRDM12 change?
**A.** Down

**Q.** And the “PRDM12 logFC” value?
**A.** -1.2196

**Q.** What about the PRIMPOL change of the same compound?
**A.** Up

**Q.** What about the “PRIMPOL logFC” value of the same compound?
**A.** 0.639

**Q.** What about the PROB1 change of the same compound?
**A.** Down

**Q.** What about the “PROB1 logFC” value of the same compound?
**A.** -0.6611

**Q.** What about the PRSS56 change of the same compound?
**A.** Up

**Q.** What about the “PRSS56 logFC” value of the same compound?
**A.** 0.9346

**Q.** What about the PTP4A3 change of the same compound?
**A.** Up

**Q.** What about the “PTP4A3 logFC” value of the same compound?
**A.** 0.9798

**Q.** And the PTPRR change?
**A.** Up

**Q.** And the “PTPRR logFC” value?
**A.** 1.308

**Q.** What about the RAET1E change of the same compound?
**A.** Down

**Q.** And the “RAET1E logFC” value?
**A.** -0.794

**Q.** And the RAET1L change?
**A.** Down

**Q.** What about the “RAET1L logFC” value of the same compound?
**A.** -0.9044

**Q.** And the RASD2 change?
**A.** Down

**Q.** And the “RASD2 logFC” value?
**A.** -0.5906

**Q.** And the RASL11A change?
**A.** Down

**Q.** And the “RASL11A logFC” value?
**A.** -0.8207

**Q.** What about the RHBDL3 change of the same compound?
**A.** Down

**Q.** What about the “RHBDL3 logFC” value of the same compound?
**A.** -0.6105

**Q.** And the S1PR1 change?
**A.** Down

**Q.** And the “S1PR1 logFC” value?
**A.** -1.034

**Q.** What about the SH2D5 change of the same compound?
**A.** Up

**Q.** What about the “SH2D5 logFC” value of the same compound?
**A.** 0.5827

**Q.** What about the SHC3 change of the same compound?
**A.** Down

**Q.** And the “SHC3 logFC” value?
**A.** -0.7485

**Q.** What about the SLC4A11 change of the same compound?
**A.** Down

**Q.** And the “SLC4A11 logFC” value?
**A.** -0.655

**Q.** What about the SLC6A12 change of the same compound?
**A.** Down

**Q.** What about the “SLC6A12 logFC” value of the same compound?
**A.** -3.144

**Q.** And the SLC6A16 change?
**A.** Down

**Q.** And the “SLC6A16 logFC” value?
**A.** -0.7923

**Q.** And the SLC12A3 change?
**A.** Down

**Q.** And the “SLC12A3 logFC” value?
**A.** -0.7354

**Q.** What about the SLC25A41 change of the same compound?
**A.** Down

**Q.** And the “SLC25A41 logFC” value?
**A.** -0.9215

**Q.** And the SMC1B change?
**A.** Up

**Q.** And the “SMC1B logFC” value?
**A.** 1.162

**Q.** What about the SMPDL3A change of the same compound?
**A.** Down

**Q.** And the “SMPDL3A logFC” value?
**A.** -0.7314

**Q.** And the SORBS1 change?
**A.** Up

**Q.** What about the “SORBS1 logFC” value of the same compound?
**A.** 0.6679

**Q.** What about the SP6 change of the same compound?
**A.** Down

**Q.** And the “SP6 logFC” value?
**A.** -0.8849

**Q.** And the ST3GAL5 change?
**A.** Down

**Q.** And the “ST3GAL5 logFC” value?
**A.** -0.6552

**Q.** What about the STAC change of the same compound?
**A.** Down

**Q.** What about the “STAC logFC” value of the same compound?
**A.** -0.9497

**Q.** What about the STXBP6 change of the same compound?
**A.** Down

**Q.** And the “STXBP6 logFC” value?
**A.** -0.6612

**Q.** And the SYTL4 change?
**A.** Down

**Q.** What about the “SYTL4 logFC” value of the same compound?
**A.** -1.384

**Q.** And the TCF7 change?
**A.** Up

**Q.** What about the “TCF7 logFC” value of the same compound?
**A.** 0.7392

**Q.** And the TESPA1 change?
**A.** Down

**Q.** What about the “TESPA1 logFC” value of the same compound?
**A.** -0.7534

**Q.** What about the TEX9 change of the same compound?
**A.** Up

**Q.** What about the “TEX9 logFC” value of the same compound?
**A.** 0.7307

**Q.** And the TGFA change?
**A.** Down

**Q.** What about the “TGFA logFC” value of the same compound?
**A.** -0.6404

**Q.** What about the THRB change of the same compound?
**A.** Down

**Q.** What about the “THRB logFC” value of the same compound?
**A.** -0.6974

**Q.** What about the TIAF1 change of the same compound?
**A.** Down

**Q.** And the “TIAF1 logFC” value?
**A.** -0.9875

**Q.** And the TLN2 change?
**A.** Up

**Q.** What about the “TLN2 logFC” value of the same compound?
**A.** 0.6813

**Q.** And the TMEM17 change?
**A.** Up

**Q.** And the “TMEM17 logFC” value?
**A.** 0.6031

**Q.** And the TMEM121 change?
**A.** Down

**Q.** And the “TMEM121 logFC” value?
**A.** -0.7343

**Q.** And the TMEM158 change?
**A.** Down

**Q.** And the “TMEM158 logFC” value?
**A.** -0.7403

**Q.** What about the TMEM213 change of the same compound?
**A.** Down

**Q.** And the “TMEM213 logFC” value?
**A.** -1.017

**Q.** And the TMIE change?
**A.** Up

**Q.** And the “TMIE logFC” value?
**A.** 1.064

**Q.** And the TMPPE change?
**A.** Down

**Q.** What about the “TMPPE logFC” value of the same compound?
**A.** -0.812

**Q.** What about the TNFRSF14 change of the same compound?
**A.** Up

**Q.** What about the “TNFRSF14 logFC” value of the same compound?
**A.** 1.214

**Q.** What about the TOX change of the same compound?
**A.** Up

**Q.** And the “TOX logFC” value?
**A.** 0.9011

**Q.** And the TRABD2B change?
**A.** Up

**Q.** And the “TRABD2B logFC” value?
**A.** 0.6053

**Q.** What about the TSHZ2 change of the same compound?
**A.** Up

Reference: article PMC11671526, “β-caryophyllene sensitizes hepatocellular carcinoma cells to chemotherapeutics and inhibits cell malignancy through targeting MAPK signaling pathway” (Frontiers in Pharmacology, 2024)
